The inhibition is the change of the read-out against control, counted positive when it falls. As a reminder, the chromatographic logP is a lipophilicity value derived from retention on a column. A higher chromatographic logP goes with higher lipophilicity.

The results in this text go back to patent US12543738B2 (Bayer Aktiengesellschaft, priority 2020, dated 2026).

SMILES strings stand for the structures.

One data set relates to Septoria tritici. Description: Septoria tritici in vitro cell test. Format: cell-based. The settings on record: Zymoseptoria tritici, 168 h; 20 ppm of active ingredient; liquid culture, 7 days incubation; read-out: efficacy (inhibition of fungal growth). The protocol: • Solvent: DMSO • Culture medium: 1 g KH2PO4 (VWR), 1 g K2HPO4 (VWR), 0.5 g Urea (VWR), 3 g KNO3 (Prolabo), 10 g saccharose (VWR), 0.5 g MgSO4, 7H2O (Sigma), 0.07 g CaCl2, 2H2O (Prolabo), 0.2 mg MnSO4, H2O (Sigma), 0.6 mg CuSO4, 5H2O (Sigma), 7.9 mg ZnSO4, 7H2O (Sigma), 0.1 mg H3BO3 (Merck), 0.14 mg NaMoO4, 2H2O (Sigma), 2 mg thiamine (Sigma), 0.1 mg biotine (VWR), 4 mg FeSO4, 7H2O (Sigma), QSP 1 liter • Inoculum: spore suspension Fungicides were solubilized in DMSO and the solution used to prepare the required range of concentrations. […] A spore suspension of S. tritici was prepared and diluted to the desired spore density. Fungicides were evaluated for their ability to inhibit spore germination and mycelium growth in liquid culture assay. The compounds were added in the desired concentration to the culture medium with spores. […] Inhibition of fungal growth was determined by comparing the absorbance values in wells containing the fungicides with the absorbance in control wells without fungicides.

Another data set concerns Sphaerotheca fuliginea. Description: In vivo preventive test on Sphaerotheca fuliginea (powdery mildew on cucurbits). Particulars: Podosphaera fuliginea, 192 h; 500 ppm of active ingredient; preventive spray on gherkin; evaluated 8 days after inoculation; read-out: efficacy. The protocol: The active ingredients were made soluble and homogenized in a mixture of Dimethyl sulfoxide/Acetone//Tween® 80 and then diluted in water to the desired concentration. The young plants of gherkin were treated by spraying the active ingredient prepared as described above. Control plants were treated only with an aqueous solution of Acetone/Dimethyl sulfoxide/Tween® 80. After 24 hours, the plants were contaminated by spraying the leaves with an aqueous suspension of Sphaerotheca fuliginea spores.

The next data set concerns Alternaria alternata. Description: Alternaria alternata in vitro cell test. Format: cell-based. The settings on record: 120 h, 20 ppm of active ingredient, liquid culture, 5 days incubation, read-out: efficacy (inhibition of fungal growth). As for the experimental part: (§1) • Solvent: DMSO • Culture medium: 14.6 g anhydrous D-glucose (VWR), 7.1 g Mycological Peptone (Oxoid), 1.4 g granulated Yeast Extract (Merck), QSP 1 liter • Inoculum: spores suspension Fungicides were solubilized in DMSO and the solution used to prepare the required range of concentrations. […] A spore suspension of A. alternata was prepared and diluted to the desired spore density. Fungicides were evaluated for their ability to inhibit spore germination and mycelium growth in liquid culture assay. The compounds were added in the desired concentration to the culture medium with spores. After 5 days incubation, fungi-toxicity of compounds was determined by spectrometric measurement of mycelium growth. Inhibition of fungal growth was determined by comparing the absorbance values in wells containing the fungicides with the absorbance in control wells without fungicides.

For data set [1], the system named is Colletotrichum lindemuthianum. Kind of data set: In vivo preventive test on Colletotrichum lindemuthianum (leaf spot on bean). The settings on record: 168 h, 500 ppm of active ingredient, preventive spray on bean, evaluated 7 days after inoculation, read-out: efficacy. As for the experimental part: The active ingredients were made soluble and homogenized in a mixture of Dimethyl sulfoxide/Acetone//Tween® 80 and then diluted in water to the desired concentration. The young plants of bean were treated by spraying the active ingredient prepared as described above. Control plants were treated only with an aqueous solution of Acetone/Dimethyl sulfoxide/Tween® 80. After 24 hours, the plants were contaminated by spraying the leaves with an aqueous suspension of Colletotrichum lindemuthianum spores.

The subject of the next data set is Pyrenophora teres. Kind of data set: In vivo preventive test on Pyrenophora teres (net blotch on barley). The settings on record: 240 h, 500 ppm of active ingredient, preventive spray on barley, evaluated 10 days after inoculation, read-out: efficacy. As for the experimental part: The active ingredients were made soluble and homogenized in a mixture of Dimethyl sulfoxide/Acetone//Tween® 80 and then diluted in water to the desired concentration. The young plants of barley were treated by spraying the active ingredient prepared as described above. Control plants were treated only with an aqueous solution of Acetone/Dimethyl sulfoxide/Tween® 80. After 24 hours, the plants were contaminated by spraying the leaves with an aqueous suspension of Pyrenophora teres spores.

A further data set relates to Pyricularia Oryzae. Description: microbe, parasite or virus in culture. In kind it is cell-based. The settings on record: 120 h, read-out: efficacy (inhibition of fungal growth).
A further data set deals with Fusarium culmorum. Description: Fusarium culmorum in vitro cell test. In kind it is cell-based. Particulars: 96 h, 20 ppm of active ingredient, liquid culture, 4 days incubation, read-out: efficacy (inhibition of fungal growth). As for the experimental part: • Solvent: DMSO • Culture medium: 14.6 g anhydrous D-glucose (VWR), 7.1 g Mycological Peptone (Oxoid), 1.4 g granulated Yeast Extract (Merck), QSP 1 liter • Inoculum: spore suspension • Fungicides were solubilized in DMSO and the solution used to prepare the required range of concentrations. The final concentration of DMSO used in the assay was ≤1%.
A spore suspension of F. culmorum was prepared and diluted to the desired spore density.
Fungicides were evaluated for their ability to inhibit spore germination and mycelium growth in liquid culture assay. The compounds were added in the desired concentration to the culture medium with spores. After 4 days incubation, fungi-toxicity of compounds was determined by spectrometric measurement of mycelium growth. Inhibition of fungal growth was determined by comparing the absorbance values in wells containing the fungicides with the absorbance in control wells without fungicides.

A short description of data set [2]: Measurement of LogP values by HPLC on reversed phase columns (EEC directive 79/831 Annex V.A8). In kind it is physicochemical. Particulars: method [a]: LC-UV, acidic range, 0.1% formic acid in water and acetonitrile; compounds of formula (I-1), Table 1. The protocol: Calibration was done with straight-chain alkan2-ones (with 3 to 16 carbon atoms) with known LogP values (measurement of LogP values using retention times with linear interpolation between successive alkanones). Lambda-max-values were determined using UV-spectra from 200 nm to 400 nm and the peak values of the chromatographic signals

A further data set relates to Alternaria brassicae. Kind of data set: In vivo preventive test on Alternaria brassicae (leaf spot on radish or cabbage). The settings on record: 144 h, 500 ppm of active ingredient, preventive spray on radish or cabbage, evaluated 6 days after inoculation, read-out: efficacy. As for the experimental part:
The active ingredients were made soluble and homogenized in a mixture of Dimethyl sulfoxide/Acetone//Tween® 80 and then diluted in water to the desired concentration. The young plants of radish or cabbage were treated by spraying the active ingredient prepared as described above. Control plants were treated only with an aqueous solution of Acetone/Dimethyl sulfoxide/Tween® 80. After 24 hours, the plants were contaminated by spraying the leaves with an aqueous suspension of Alternaria brassicae spores.

Data set [3] relates to Colletotrichum lindemuthianum. Kind of data set: Colletotrichum lindemuthianum in vitro cell test. Format: cell-based. The settings on record: 144 h, 20 ppm of active ingredient, liquid culture, 6 days incubation, read-out: efficacy (inhibition of fungal growth). The protocol: as §1, with “of C. lindemuthianum” for “of A. alternata”, “inhibit spores” for “inhibit spore”, “After 6” for “After 5”

The test system of a further data set is Botrytis cinerea. Kind of data set: In vivo preventive test on Botrytis cinerea (grey mould). Particulars: 500 ppm of active ingredient, preventive spray on gherkin or cabbage, evaluated 4 to 5 days after inoculation, read-out: efficacy. The protocol: The active ingredients were made soluble and homogenized in a mixture of Dimethyl sulfoxide/Acetone//Tween® 80 and then diluted in water to the desired concentration. The young plants of gherkin or cabbage were treated by spraying the active ingredient prepared as described above. Control plants were treated only with an aqueous solution of Acetone/Dimethyl sulfoxide/Tween® 80. After 24 hours, the plants were contaminated by spraying the leaves with an aqueous suspension of Botrytis cinerea spores.

With `Cc1ccc(CC2CON=C(c3cc(C)nnc3Oc3cccc(Cl)c3)N2)c(Br)c1` (racemic) [Compound I-001, (5RS)-5-(2-bromo-4-methylbenzyl)-3-[3-(3-chlorophenoxy)-6-methylpyridazin-4-yl]-5,6-dihydro-4H-1,2,4-oxadiazine], the inhibition at 20 ppm (in the data set with Septoria tritici; in the data set with Alternaria alternata; with Pyricularia Oryzae; with Fusarium culmorum; in [3]) was 90 to 100% throughout. The pest or weed control at 500 ppm (in the data set with Sphaerotheca fuliginea; in [1]; with Pyrenophora teres; in the data set on Alternaria brassicae; in the data set on Botrytis cinerea) was 90 to 100% throughout. The chromatographic logP in data set [2] was determined as 3.94.

On to `Cc1ccc(CC2CON=C(c3cc(C)nnc3Oc3cccc(Cl)c3)N2)c(C)c1` (racemic) [Compound I-002, (5RS)-3-[3-(3-chlorophenoxy)-6-methylpyridazin-4-yl]-5-(2,4-dimethylbenzyl)-5,6-dihydro-4H-1,2,4-oxadiazine], for which the inhibition at 20 ppm (with Septoria tritici; with Alternaria alternata; in the data set with Pyricularia Oryzae; with Fusarium culmorum; in data set [3]) was 90 to 100% each time. In addition, the pest or weed control at 500 ppm (with Sphaerotheca fuliginea; in [1]; in the data set with Pyrenophora teres; in the data set with Alternaria brassicae; in the data set on Botrytis cinerea) was 90 to 100% each time. Further, the chromatographic logP in data set [2] was 3.77.

On to `Cc1ccc(CC2CON=C(c3cc(C)nnc3Oc3cccc(C)c3F)N2)c(Cl)c1` (racemic) [Compound I-003, (5RS)-5-(2-chloro-4-methylbenzyl)-3-[3-(2-fluoro-3-methylphenoxy)-6-methylpyridazin-4-yl]-5,6-dihydro-4H-1,2,4-oxadiazine], for which the inhibition at 20 ppm (in the data set with Septoria tritici; with Alternaria alternata; in the data set on Pyricularia Oryzae; in the data set with Fusarium culmorum; in [3]) was 90 to 100% each time. In addition, the pest or weed control at 500 ppm (in the data set on Sphaerotheca fuliginea; in data set [1]; in the data set with Pyrenophora teres; with Alternaria brassicae; with Botrytis cinerea) was 90 to 100% in each case. In data set [2], this molecule returned a chromatographic logP of 3.78.

Take `Cc1ccc(CC2CON=C(c3cc(C)nnc3Oc3cccc(Cl)c3)N2)c(Cl)c1` (racemic) [Compound I-004, (5RS)-5-(2-chloro-4-methylbenzyl)-3-[3-(3-chlorophenoxy)-6-methylpyridazin-4-yl]-5,6-dihydro-4H-1,2,4-oxadiazine]: the inhibition at 20 ppm (in the data set with Septoria tritici; in the data set with Alternaria alternata; with Pyricularia Oryzae; with Fusarium culmorum; in data set [3]) was 90 to 100% throughout. The pest or weed control at 500 ppm (with Sphaerotheca fuliginea; in data set [1]; in the data set on Pyrenophora teres; in the data set on Alternaria brassicae; with Botrytis cinerea) was 90 to 100% each time. The same molecule had a chromatographic logP in data set [2] of 3.81.

For the molecule `Cc1cc(C)cc(CC2CON=C(c3cc(C)nnc3Oc3cccc(Cl)c3)N2)c1` (racemic) [Compound I-009, (5RS)-3-[3-(3-chlorophenoxy)-6-methylpyridazin-4-yl]-5-(3,5-dimethylbenzyl)-5,6-dihydro-4H-1,2,4-oxadiazine], the inhibition at 20 ppm (in the data set with Septoria tritici; with Alternaria alternata; in the data set with Pyricularia Oryzae; in the data set with Fusarium culmorum; in [3]) was 90 to 100% throughout. In data set [2], the chromatographic logP was 3.87.

`CC(O)c1cc(C2=NOCC(Cc3ccc(Cl)cc3Cl)N2)c(Oc2cccc(C3CC3)c2F)nn1` (stereo not drawn) [Compound I-023, 1-{6-(3-cyclopropyl-2-fluorophenoxy)-5-[5-(2,4-dichlorobenzyl)-5,6-dihydro-4H-1,2,4-oxadiazin-3-yl]pyridazin-3-yl}ethanol]: the pest or weed control at 500 ppm (in the data set on Sphaerotheca fuliginea; in data set [1]; with Pyrenophora teres; with Alternaria brassicae; in the data set on Botrytis cinerea) was 90 to 100% throughout. Also, the inhibition at 20 ppm (with Alternaria alternata; in the data set on Pyricularia Oryzae; with Fusarium culmorum; in [3]) was 90 to 100% each time. The molecule further showed a chromatographic logP in data set [2] of 3.87.
